Source: ChEMBL document CHEMBL1127412, “PRO_LIGAND: an approach to de novo molecular design. 2. Design of novel molecules from molecular field analysis (MFA) models and pharmacophores” (J Med Chem, 1994)
pIC50: −log10 of the molar value. Non-standard residues stand in square brackets, D forms with d. Residues, ends and D or L forms follow the SMILES beside them. Nle = CCCC[C@H](N)C(=O)O

Molecular target: Angiotensin-converting enzyme (Homo sapiens, UniProt P12821)
Experiment: Inhibition against ACE.

pIC50	SMILES
4.11	N[C@@H](Cc1ccccc1)C(=O)N1CCC[C@H]1C(=O)N1CCC[C@H]1C(=O)O (H-Phe-Pro-Pro-OH)
5.43	CC[C@H](C)[C@H](N)C(=O)N[C@@H](Cc1ccc(O)cc1)C(=O)O (H-Ile-Tyr-OH)
4.80	C[C@H](NC(=O)[C@@H](N)CCCNC(=N)N)C(=O)N1CCC[C@H]1C(=O)O (H-Arg-Ala-Pro-OH)
5.38	C[C@H](NC(=O)[C@@H](N)Cc1ccccc1)C(=O)N1CCC[C@H]1C(=O)O (H-Phe-Ala-Pro-OH)
5.64	CC(C)C[C@H](N)C(=O)N[C@@H](C)C(=O)N1CCC[C@H]1C(=O)O (H-Leu-Ala-Pro-OH)
6.15	CCCC[C@H](N)C(=O)N[C@@H](C)C(=O)N1CCC[C@H]1C(=O)O (H-[Nle]-Ala-Pro-OH)
